Reference: patent US4725683A, “Fluorophenoxyphenoxypropionates and derivatives thereof” (The Dow Chemical Company, priority 1985, dated 1988)

Experiments:
Type in all cases: in vivo
Barnyard Grass [1] = assay: Postemergent activity
Protocol: (§1) Representative compositions of the present invention were evaluated for the postemergence control of species of plants listed in Table A. In these evaluations, pots of the plant species listed in Table A, grown to a height of about 10 cms, were used. Aqueous spray compositions, containing various amounts of 2-[4-(2-fluoro-4-trifluoromethylphenoxy)-phenoxy]propionic acid methy ester, i.e., 125 ppm, 62.5 ppm, 31.25 ppm, 15.6 ppm, 7.8 ppm and 3.9 ppm, respectively, were applied to separate pots. The spray compositions were made by mixing the active ingredient in acetone to 1/2 the final volume, i.e., twice the final concentration. An equal amount of water was added to the active ingredient/acetone mixture wherein the water contained 0.1 percent by weight of TWEEN® 200 surfactant. The application to the plants was made to the point of run-off and was carried out with conventional spraying equipment. Other pots were sprayed with similar compositions containing no toxicant to serve as controls. Thereafter, the pots were maintained under conditions conducive for plant growth. Two weeks after treatment, the pots were examined for plant growth and evaluated on a scale of 0 to 100 where 0 represents no effect and 100 represents complete kill. The results of the examination of the treated pots are set forth below in Table A.
(§2) Substantially the same procedures as those described in Example A were repeated except that the active ingredients were 2-[4-(4-chloro-2-fluorophenoxy)phenoxy]propionic acid; methyl ester and its R-enantiomer and 2-(4-(4-bromo-2-fluorophenoxy)phenoxy propionic acid; methyl ester and its R enantiomer. The results are listed below in Table B.
(§3) In further operations employing the above general procedures and the indicated test compounds the following results were obtained: […]

Crabgrass = assay: Postemergent activity
Protocol: as §1, §2, §3

Wheat [2] = assay: Postemergent activity; conditions: Triticum aestivum, post-emergence, 336 h, read-out: % Control
Protocol: as §1, §2, §3

Wild Oats [3] = assay: Postemergent activity; conditions: Avena fatua, post-emergence, 336 h
Protocol: as §1, §2, §3

Foxtail [4] = assay: Postemergent control of plant species
Protocol: as §1, §3

Foxtail [5] = assay: Postemergent control of plant species; conditions: 250 ppm
Yellow Foxtail [6] = assay: Postemergent activity
Protocol: Representative compositions of the present invention were evaluated for the postemergence control of species of plants listed in Table A. In these evaluations, pots of the plant species listed in Table A, grown to a height of about 10 cms, were used. […] The spray compositions were made by mixing the active ingredient in acetone to 1/2 the final volume, i.e., twice the final concentration. An equal amount of water was added to the active ingredient/acetone mixture wherein the water contained 0.1 percent by weight of TWEEN® 200 surfactant. The application to the plants was made to the point of run-off and was carried out with conventional spraying equipment. […] Thereafter, the pots were maintained under conditions conducive for plant growth.

Johnson Grass [7] = assay: Postemergent activity
Protocol: as §1

Barnyard Grass [8] = assay: Preemergent activity; conditions: Echinochloa crus-galli, pre-emergence, read-out: Preemergence Control
In short: (§4)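 Test compound was applied in acetone mixed with an equal volume of water containing 0.1% Tween-20, sprayed preemergence onto seed beds of sandy loam soil sown with the test species. Beds were kept under identical temperature and light. A solvent-only spray served as control.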

Johnson Grass [9] = assay: Preemergent activity; conditions: Sorghum halepense, pre-emergence, read-out: Preemergence Control
In short: as §4

Wheat [10] = assay: Preemergent activity; conditions: Triticum aestivum, pre-emergence, read-out: Preemergence Control
In short: as §4

Wild Oats [11] = assay: Preemergent activity; conditions: Avena fatua, pre-emergence, read-out: Preemergence Control
In short: as §4

Yellow Foxtail [12] = assay: Preemergent activity; conditions: Setaria, pre-emergence, read-out: Preemergence Control
In short: as §4

In the case of `COC(=O)C=C(OC)C(C)Oc1ccc(Oc2ccc(Br)cc2F)cc1` (stereo not shown), the “% Control” value (Barnyard Grass [1]; 7.8 ppm) is reported as 0%, the “% Control” value (Barnyard Grass [1]; 15.6 ppm) is reported as 0% and the “% Control” value (Barnyard Grass [1]; 31.2 ppm) is reported as 0%. The “% Control” value (Barnyard Grass [1]; 62.5 ppm) was 0%, the “% Control” value (Barnyard Grass [1]; 125 ppm) was 0% and the “% Control” value (Barnyard Grass [1]; 250 ppm) was 0%. The “% Control” value (Crabgrass; 7.8 ppm) was 0%, the “% Control” value (Crabgrass; 15.6 ppm) was 0% and the “% Control” value (Crabgrass; 31.2 ppm) was 20%. For the same molecule, the “% Control” value (Crabgrass; 62.5 ppm) was 95%, the “% Control” value (Crabgrass; 125 ppm) was 98% and the “% Control” value (Crabgrass; 250 ppm) was 100%. It also gave a plant injury at 7.8 ppm (Wheat [2]) of 0%, a plant injury at 15.6 ppm (Wheat [2]) of 0% and a plant injury at 31.2 ppm (Wheat [2]) of 0%. It also gave a plant injury at 62.5 ppm (Wheat [2]) of 0%, a plant injury at 125 ppm (Wheat [2]) of 0% and a plant injury at 250 ppm (Wheat [2]; 250 ppm) of 0%. It also gave a pest or weed control at 7.8 ppm (Wild Oats [3]; read-out: % Control) of 0%, a pest or weed control at 15.6 ppm (Wild Oats [3]; read-out: % Control) of 0% and a pest or weed control at 31.2 ppm (Wild Oats [3]) of 0%. The pest or weed control at 62.5 ppm (Wild Oats [3]; read-out: % Control) was 0%, the pest or weed control at 125 ppm (Wild Oats [3]; read-out: % Control) was 0% and the pest or weed control at 250 ppm (Wild Oats [3]; read-out: % Control) was 0%. The “Percent Control” value (Foxtail [4]; 7.8 ppm) was 0%, the “Percent Control” value (Foxtail [4]; 15.6 ppm) was 0% and the “Percent Control” value (Foxtail [4]; 31.2 ppm) was 0%. For the same molecule, the “Percent Control” value (Foxtail [4]; 62.5 ppm) was 0%, the “Percent Control” value (Foxtail [4]; 125 ppm) was 0% and the “Percent Control” value (Foxtail [5]) was 100%.

In the case of `COC(=O)C(C)Oc1ccc(Oc2ccc(I)cc2F)cc1` (stereo not shown) [2-(4-(2-fluoro-4-iodophenoxy)phenoxy)propionic acid methyl ester], the “% Control” value (Barnyard Grass [1]; 15.6 ppm) is reported as 10%, the “% Control” value (Barnyard Grass [1]; 31.25 ppm) is reported as 85% and the “% Control” value (Barnyard Grass [1]; 62.5 ppm) is reported as 100%. For the same molecule, the “% Control” value (Barnyard Grass [1]; 125 ppm) was 100%, the “% Control” value (Crabgrass; 15.6 ppm) was 100% and the “% Control” value (Crabgrass; 31.25 ppm) was 100%. The “% Control” value (Crabgrass; 62.5 ppm) was 100%, the “% Control” value (Crabgrass; 125 ppm) was 100% and the plant injury at 15.6 ppm (Wheat [2]) was 0%. For the same molecule, the plant injury at 31.25 ppm (Wheat [2]; 31.25 ppm) was 0%, the plant injury at 62.5 ppm (Wheat [2]) was 0% and the plant injury at 125 ppm (Wheat [2]) was 0%. The pest or weed control at 15.6 ppm (Wild Oats [3]; read-out: % Control) was 0%, the pest or weed control at 31.25 ppm (Wild Oats [3]; 31.25 ppm, read-out: % Control) was 0% and the pest or weed control at 62.5 ppm (Wild Oats [3]; read-out: % Control) was 0%. For the same molecule, the pest or weed control at 125 ppm (Wild Oats [3]; read-out: % Control) was 0%, the “% Control” value (Yellow Foxtail [6]; 15.6 ppm) was 90% and the “% Control” value (Yellow Foxtail [6]; 31.25 ppm) was 100%. For the same molecule, the “% Control” value (Yellow Foxtail [6]; 62.5 ppm) was 100%, the “% Control” value (Yellow Foxtail [6]; 125 ppm) was 100% and the “% Control” value (Johnson Grass [7]; 15.6 ppm) was 90%. The “% Control” value (Johnson Grass [7]; 31.25 ppm) was 100%, the “% Control” value (Johnson Grass [7]; 62.5 ppm) was 100% and the “% Control” value (Johnson Grass [7]; 125 ppm) was 100%. For the same molecule, the pest or weed control at 140 g/ha (Barnyard Grass [8]; 0.14 kgs/hectare) was 50%, the pest or weed control at 280 g/ha (Barnyard Grass [8]; 0.28 kgs/hectare) was 100% and the pest or weed control at 560 g/ha (Barnyard Grass [8]; 0.56 kgs/hectare) was 97%. The pest or weed control at 1120 g/ha (Barnyard Grass [8]; 1.12 kgs/hectare) was 100%, the pest or weed control at 70 g/ha (Johnson Grass [9]; 0.07 kgs/hectare) was 0% and the pest or weed control at 140 g/ha (Johnson Grass [9]; 0.14 kgs/hectare) was 0%. It also gave a pest or weed control at 280 g/ha (Johnson Grass [9]; 0.28 kgs/hectare) of 60%, a pest or weed control at 560 g/ha (Johnson Grass [9]; 0.56 kgs/hectare) of 99% and a pest or weed control at 1120 g/ha (Johnson Grass [9]; 1.12 kgs/hectare) of 100%. It also gave a plant injury at 70 g/ha (Wheat [10]; 0.07 kgs/hectare) of 0%, a plant injury at 140 g/ha (Wheat [10]; 0.14 kgs/hectare) of 0% and a plant injury at 280 g/ha (Wheat [10]; 0.28 kgs/hectare) of 0%. It also gave a plant injury at 560 g/ha (Wheat [10]; 0.56 kgs/hectare) of 20%, a plant injury at 1120 g/ha (Wheat [10]; 1.12 kgs/hectare) of 20% and a pest or weed control at 70 g/ha (Wild Oats [11]; 0.07 kgs/hectare) of 0%. The pest or weed control at 140 g/ha (Wild Oats [11]; 0.14 kgs/hectare) was 0%, the pest or weed control at 280 g/ha (Wild Oats [11]; 0.28 kgs/hectare) was 0% and the pest or weed control at 560 g/ha (Wild Oats [11]; 0.56 kgs/hectare) was 95%. The pest or weed control at 1120 g/ha (Wild Oats [11]; 1.12 kgs/hectare) was 99%, the pest or weed control at 70 g/ha (Yellow Foxtail [12]; 0.07 kgs/hectare) was 0% and the pest or weed control at 140 g/ha (Yellow Foxtail [12]; 0.14 kgs/hectare) was 0%. For the same molecule, the pest or weed control at 280 g/ha (Yellow Foxtail [12]; 0.28 kgs/hectare) was 20%, the pest or weed control at 560 g/ha (Yellow Foxtail [12]; 0.56 kgs/hectare) was 100% and the pest or weed control at 1120 g/ha (Yellow Foxtail [12]; 1.12 kgs/hectare) was 100%.

With `CCOC(=O)CC(O)C(C)Oc1ccc(Oc2ccc(Br)cc2F)cc1` (stereo not shown) the “% Control” value (Barnyard Grass [1]; 7.8 ppm) was 0%, the “% Control” value (Barnyard Grass [1]; 15.6 ppm) was 0% and the “% Control” value (Barnyard Grass [1]; 31.2 ppm) was 80%. For the same molecule, the “% Control” value (Barnyard Grass [1]; 62.5 ppm) was 100%, the “% Control” value (Barnyard Grass [1]; 125 ppm) was 100% and the “% Control” value (Barnyard Grass [1]; 250 ppm) was 100%. For the same molecule, the “% Control” value (Crabgrass; 7.8 ppm) was 0%, the “% Control” value (Crabgrass; 15.6 ppm) was 20% and the “% Control” value (Crabgrass; 31.2 ppm) was 20%. For the same molecule, the “% Control” value (Crabgrass; 62.5 ppm) was 100%, the “% Control” value (Crabgrass; 125 ppm) was 100% and the “% Control” value (Crabgrass; 250 ppm) was 100%. It also gave a plant injury at 7.8 ppm (Wheat [2]) of 0%, a plant injury at 15.6 ppm (Wheat [2]) of 0% and a plant injury at 31.2 ppm (Wheat [2]) of 0%. The plant injury at 62.5 ppm (Wheat [2]) was 0%, the pest or weed control at 7.8 ppm (Wild Oats [3]; read-out: % Control) was 0% and the pest or weed control at 15.6 ppm (Wild Oats [3]; read-out: % Control) was 0%. The pest or weed control at 31.2 ppm (Wild Oats [3]) was 0%, the pest or weed control at 62.5 ppm (Wild Oats [3]; read-out: % Control) was 0% and the pest or weed control at 125 ppm (Wild Oats [3]; read-out: % Control) was 50%. The pest or weed control at 250 ppm (Wild Oats [3]; read-out: % Control) was 50%, the “Percent Control” value (Foxtail [4]; 7.8 ppm) was 0% and the “Percent Control” value (Foxtail [4]; 15.6 ppm) was 0%. The “Percent Control” value (Foxtail [4]; 31.2 ppm) was 0%, the “Percent Control” value (Foxtail [4]; 62.5 ppm) was 100% and the “Percent Control” value (Foxtail [4]; 125 ppm) was 100%. For the same molecule, the “Percent Control” value (Foxtail [5]) was 100%.
